Read-outs that look alike come from different tables or passages of the source.
Experiments:
human Factor XIa = molecular target: T1, human Factor XIa (Homo sapiens, UniProt P03951); experiment: Factor XIa Assay; assay type: biochemical; conditions: read-out: F11a IC50
T1 construct: purified human Factor XIa; purchased Sekisui Diagnostics
Protocol: The effectiveness of a compound of the present invention as an inhibitor of Coagulation Factor XIa can be determined using a relevant purified serine protease, and an appropriate synthetic substrate. The rate of hydrolysis of the chromogenic or fluorogenic substrate by the relevant serine protease was measured both in the absence and presence of compounds of the present invention. Assays were conducted at room temperature or at 37° C. […] A decrease in the rate of fluorescence change in the presence of inhibitor is indicative of enzyme inhibition. Such methods are known to one skilled in the art. […]
Factor XIa determinations were made in 50 mM HEPES buffer at pH 7.4 containing 150 mM NaCl, 5 mM CaCl2, and 0.1% PEG 8000 (polyethylene glycol; JT Baker or Fisher Scientific). Determinations were made using purified human Factor XIa at a final concentration of 40 pM (Sekisui Diagnostics) and the synthetic substrate, Z-Gly-Pro-Arg-AFC, TFA salt (Sigma #C0980) at a concentration of 100 μM.
Times required to achieve equilibration between enzyme and inhibitor were determined in control experiments. Initial velocities of product formation in the absence (Vo) or presence of inhibitor (Vi) were measured. Assuming competitive inhibition, and that unity is negligible compared Km/[S], [I]/e, and [I]/e (where [S], [I], and e respectively represent the total concentrations, of substrate, inhibitor and enzyme), the equilibrium constant (Ki) for dissociation of the inhibitor from the enzyme can be obtained from the dependence of Vo/Vi on [I] shown in the following equation.

Human plasma kallikrein = molecular target: T2, Human plasma kallikrein (Homo sapiens, UniProt P03952); experiment: Kallikrein Assay; assay type: biochemical; conditions: Plasma Kallekrein IC50, read-out: PK IC50
T2 construct: yields a heavy chain (371 amino acids) and a light chain (248 amino acids); purchased Enzyme Research Laboratories
T2 sequence (P03952 391-638 limits assumed): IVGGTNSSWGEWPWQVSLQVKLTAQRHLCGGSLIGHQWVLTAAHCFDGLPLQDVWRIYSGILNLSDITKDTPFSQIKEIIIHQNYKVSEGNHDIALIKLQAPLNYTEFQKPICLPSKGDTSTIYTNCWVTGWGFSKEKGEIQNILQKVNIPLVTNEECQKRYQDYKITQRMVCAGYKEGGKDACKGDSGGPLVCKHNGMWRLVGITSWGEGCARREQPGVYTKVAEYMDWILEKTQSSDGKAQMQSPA
T2 sequence (P03952 20-390 partner limits assumed): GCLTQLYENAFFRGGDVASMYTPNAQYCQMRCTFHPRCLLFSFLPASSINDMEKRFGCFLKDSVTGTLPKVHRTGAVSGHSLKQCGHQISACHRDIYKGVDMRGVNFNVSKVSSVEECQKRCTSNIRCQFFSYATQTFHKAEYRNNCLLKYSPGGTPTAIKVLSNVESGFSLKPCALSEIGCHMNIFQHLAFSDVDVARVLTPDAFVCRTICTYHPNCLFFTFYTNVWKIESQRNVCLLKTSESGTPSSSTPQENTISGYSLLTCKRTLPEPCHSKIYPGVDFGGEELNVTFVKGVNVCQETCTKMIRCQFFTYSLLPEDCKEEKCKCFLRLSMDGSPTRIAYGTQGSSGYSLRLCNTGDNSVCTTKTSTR
Protocol: The effectiveness of a compound of the present invention as an inhibitor of Kallikrein can be determined using a relevant purified serine protease, and an appropriate synthetic substrate. The rate of hydrolysis of the chromogenic or fluorogenic substrate by the relevant serine protease was measured both in the absence and presence of compounds of the present invention. Assays were conducted at room temperature or at 37° C. […] A decrease in the rate of fluorescence change in the presence of inhibitor is indicative of enzyme inhibition. Such methods are known to one skilled in the art. The results of this assay are expressed as the inhibitory constant, Ki.
Kallikrein determinations were made in 50 mM HEPES buffer at pH 7.4 containing 150 mM NaCl, 5 mM CaCl2, and 0.1% PEG 8000 (polyethylene glycol; Fisher Scientific). Determinations were made using purified Human plasma kallikrein at a final concentration of 0.5 nM (Enzyme Research Laboratories) and the synthetic substrate, Acetyl-K—P—R-AFC (Sigma # C6608) at a concentration of […].
Times required to achieve equilibration between enzyme and inhibitor were determined in control experiments. The reactions were performed under linear progress curve conditions and fluorescence increase measured at 405 Ex/510 Em nm. […] IC50 was determined by inflection point from a four parameter logistic curve fit. Ki was calculated using the Cheng Prusoff equation, Ki=IC50/(1+([S]/Km)).

T1 sequence (P03951 388-625 limits assumed): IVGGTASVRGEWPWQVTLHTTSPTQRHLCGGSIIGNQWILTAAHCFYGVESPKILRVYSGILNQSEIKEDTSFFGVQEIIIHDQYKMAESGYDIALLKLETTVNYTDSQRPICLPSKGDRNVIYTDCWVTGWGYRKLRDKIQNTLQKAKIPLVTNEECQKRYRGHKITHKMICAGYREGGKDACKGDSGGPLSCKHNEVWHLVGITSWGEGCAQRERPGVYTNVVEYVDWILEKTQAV
T1 sequence (P03951 19-387 partner limits assumed): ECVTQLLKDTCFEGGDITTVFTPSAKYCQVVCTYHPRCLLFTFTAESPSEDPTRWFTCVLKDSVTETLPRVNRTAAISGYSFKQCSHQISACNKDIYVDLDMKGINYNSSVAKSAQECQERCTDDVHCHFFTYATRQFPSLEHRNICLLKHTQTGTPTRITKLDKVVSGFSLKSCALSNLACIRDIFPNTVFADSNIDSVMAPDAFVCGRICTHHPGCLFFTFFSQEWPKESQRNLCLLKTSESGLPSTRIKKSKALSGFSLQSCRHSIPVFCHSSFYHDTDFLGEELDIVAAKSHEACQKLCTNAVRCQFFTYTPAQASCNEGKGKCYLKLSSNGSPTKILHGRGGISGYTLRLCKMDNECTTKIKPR

IC50 (human Factor XIa; Examples 1-19 table) [µM] | IC50 (Human plasma kallikrein; Examples 1-19 table) [µM] | IC50 (human Factor XIa; Examples 20-28 table) [µM] | IC50 (Human plasma kallikrein; Examples 20-28 table) [µM] | SMILES
– | – | 0.0142 | – | O=C(O)c1ccc2nc(C(CC3CC3)c3ccc(-c4cc(Cl)ccc4-n4cnnn4)c[n+]3[O-])[nH]c2c1 (racemic) [Example 24, 2-(1-(5-carboxy-1H-benzo[d]imidazol-2-yl)-2-cyclopropylethyl)-5-(5-chloro-2-(1H-tetrazol-1-yl)phenyl)pyridine 1-oxide]
– | – | 0.054 | 2.74 | O=C(O)c1ccc2[nH]c(C(Cc3ccccc3)c3ccc(-c4cc(Cl)ccc4C(=O)O)c[n+]3[O-])nc2c1 (racemic) [Example 25]
– | – | 7.93 | – | O=C(O)c1ccc2nc(C(CC(=O)N3CCC3)c3ccc(-c4c(F)ccc(Cl)c4F)c[n+]3[O-])[nH]c2c1 (racemic) [Example 26]
– | – | 0.0791 | – | O=C(CC(c1nc2ccc(F)cc2[nH]1)c1ccc(-c2cc(Cl)ccc2-n2cnnn2)c[n+]1[O-])N1CCC1 (single isomer, unassigned) [Example 27]
– | – | 0.0937 | 1.81 | O=C(CC(c1nc2ccc(F)cc2[nH]1)c1ccc(-c2cc(Cl)ccc2-n2cnnn2)c[n+]1[O-])N1CCC1 (single isomer, unassigned) [Example 28]
– | – | 0.00182 | 0.0648 | [O-][n+]1cc(-c2c(-n3cnnn3)ccc(Cl)c2F)ccc1[C@@H](Cc1ccccc1)c1nc2cc(F)ccc2[nH]1 [Example 20, 2-[(1R)-1-{5-[3-chloro-2-fluoro-6-(1H-tetrazol-1-yl)phenyl]-1-oxidopyridin-2-yl}-2-phenylethyl]-5-fluoro-1H-benzimidazole]
– | – | 0.0118 | 0.169 | [O-][n+]1cc(-c2c(-n3cnnn3)ccc(Cl)c2F)ccc1[C@H](Cc1ccccc1)c1nc2cc(F)ccc2[nH]1 [Example 21, 2-[(1S)-1-{5-[3-chloro-2-fluoro-6-(1H-tetrazol-1-yl)phenyl]-1-oxidopyridin-2-yl}-2-phenylethyl]-5-fluoro-1H-benzimidazole]
– | – | 0.154 | – | NC(=O)c1ccc(Cl)cc1-c1ccc([C@@H](Cc2ccccc2)c2nc3cc(F)ccc3[nH]2)[n+]([O-])c1 [Example 22, (R)-5-(2-carbamoyl-5-chlorophenyl)-2-(1-(5-fluoro-1H-benzo[d]imidazol-2-yl)-2-phenylethyl)pyridine 1-oxide]
– | – | 1 | – | NC(=O)c1ccc(Cl)cc1-c1ccc([C@H](Cc2ccccc2)c2nc3cc(F)ccc3[nH]2)[n+]([O-])c1 [Example 23, (S)-5-(2-carbamoyl-5-chlorophenyl)-2-(1-(5-fluoro-1H-benzo[d]imidazol-2-yl)-2-phenylethyl)pyridine 1-oxide]

Second part, the molecule before the results:

SMILES | IC50 (human Factor XIa; Examples 1-19 table) [µM] | IC50 (Human plasma kallikrein; Examples 1-19 table) [µM] | IC50 (human Factor XIa; Examples 20-28 table) [µM] | IC50 (Human plasma kallikrein; Examples 20-28 table) [µM]
O=C(O)c1ccc2[nH]c(C(Cc3ccccc3)c3ccc(-c4c(F)ccc(Cl)c4F)c[n+]3[O-])nc2c1 (racemic) [Example 1, 2-(1-(5-Carboxy-1H-benzo[d]imidazol-2-yl)-2-phenylethyl)-5-(3-chloro-2,6-difluorophenyl)pyridine 1-oxide] | 0.0892 | 0.293 | – | –
O=C(O)c1ccc2[nH]c(C(Cc3ccccc3)c3ccc(-c4cc(Cl)ccc4-n4cnnn4)c[n+]3[O-])nc2c1 (racemic) [Example 4, 2-(1-(5-Carboxy-1H-benzo[d]imidazol-2-yl)-2-phenylethyl)-5-(5-chloro-2-(1H-tetrazol-1-yl)phenyl)pyridine 1-oxide] | 0.00045 | 0.0527 | – | –
[O-][n+]1cc(-c2cc(Cl)ccc2-n2cnnn2)ccc1C(Cc1ccccc1)c1nc2cc(F)ccc2[nH]1 (racemic) [Example 7, 5-(5-chloro-2-(1H-tetrazol-1-yl)phenyl)-2-(1-(5-fluoro-1H-benzo[d]imidazol-2-yl)-2-phenylethyl)pyridine 1-oxide] | 0.00115 | 0.186 | – | –
[O-][n+]1cc(-c2c(F)ccc(Cl)c2F)ccc1C(Cc1ccccc1)c1nc2cc(F)ccc2[nH]1 (racemic) [Example 10] | 1.25 | – | – | –
N#Cc1ccc2[nH]c(C(Cc3ccccc3)c3ccc(-c4c(F)ccc(Cl)c4F)c[n+]3[O-])nc2c1 (racemic) [Example 13] | 1.88 | – | – | –
N#Cc1ccc2[nH]c(C(Cc3ccccc3)c3ccc(-c4cc(Cl)ccc4-n4cnnn4)c[n+]3[O-])nc2c1 (racemic) [Example 16] | 0.00133 | 0.151 | – | –
N#Cc1ccc(Cl)cc1-c1ccc(C(Cc2ccccc2)c2nc3cc(C(=O)O)ccc3[nH]2)[n+]([O-])c1 (racemic) [Example 17] | 0.0382 | 0.335 | – | –
O=C(O)c1ccc2[nH]c(C(Cc3ccccc3)c3ccc(-c4c(F)ccc(Cl)c4F)c[n+]3[O-])nc2c1 (stereo in doubt) [Example 2, (S)-2-(1-(5-Carboxy-1H-benzo[d]imidazol-2-yl)-2-phenylethyl)-5-(3-chloro-2,6-difluorophenyl)pyridine 1-oxide] | 0.0462 | 0.182 | – | –
O=C(O)c1ccc2[nH]c(C(Cc3ccccc3)c3ccc(-c4c(F)ccc(Cl)c4F)c[n+]3[O-])nc2c1 (stereo in doubt) [Example 3, (R)-2-(1-(5-Carboxy-1H-benzo[d]imidazol-2-yl)-2-phenylethyl)-5-(3-chloro-2,6-difluorophenyl)pyridine 1-oxide] | 0.138 | 0.182 | – | –
[O-][n+]1cc(-c2cc(Cl)ccc2-n2cnnn2)ccc1C(Cc1ccccc1)c1nc2cc(F)ccc2[nH]1 (stereo in doubt) [Example 8, (S)-5-(5-chloro-2-(1H-tetrazol-1-yl)phenyl)-2-(1-(5-fluoro-1H-benzo[d]imidazol-2-yl)-2-phenylethyl)pyridine 1-oxide] | 0.00133 | 0.124 | – | –
[O-][n+]1cc(-c2cc(Cl)ccc2-n2cnnn2)ccc1C(Cc1ccccc1)c1nc2cc(F)ccc2[nH]1 (stereo in doubt) [Example 9, (R)-5-(5-chloro-2-(1H-tetrazol-1-yl)phenyl)-2-(1-(5-fluoro-1H-benzo[d]imidazol-2-yl)-2-phenylethyl)pyridine 1-oxide] | 0.00328 | 0.295 | – | –
O=C(O)c1ccc2[nH]c([C@@H](Cc3ccccc3)c3ccc(-c4cc(Cl)ccc4-n4cnnn4)c[n+]3[O-])nc2c1 [Example 5, (S)-2-(1-(5-Carboxy-1H-benzo[d]imidazol-2-yl)-2-phenylethyl)-5-(5-chloro-2-(1H-tetrazol-1-yl)phenyl)pyridine 1-oxide] | 0.00341 | 0.216 | – | –
O=C(O)c1ccc2[nH]c([C@H](Cc3ccccc3)c3ccc(-c4cc(Cl)ccc4-n4cnnn4)c[n+]3[O-])nc2c1 [Example 6, (R)-2-(1-(5-Carboxy-1H-benzo[d]imidazol-2-yl)-2-phenylethyl)-5-(5-chloro-2-(1H-tetrazol-1-yl)phenyl)pyridine 1-oxide] | 0.00051 | 0.0284 | – | –
O=C(O)c1ccc2[nH]c([C@@H](Cc3ccc(F)cc3)c3ccc(-c4c(F)ccc(Cl)c4F)c[n+]3[O-])nc2c1 [Example 11] | 0.146 | – | – | –
O=C(O)c1ccc2[nH]c([C@H](Cc3ccc(F)cc3)c3ccc(-c4c(F)ccc(Cl)c4F)c[n+]3[O-])nc2c1 [Example 12] | 0.16 | – | – | –
[O-][n+]1cc(-c2cc(Cl)ccc2-n2cnnn2)ccc1[C@H](Cc1ccc(F)cc1)c1nc2cc(F)ccc2[nH]1 [Example 14] | 0.0897 | 0.809 | – | –
[O-][n+]1cc(-c2cc(Cl)ccc2-n2cnnn2)ccc1[C@@H](Cc1ccc(F)cc1)c1nc2cc(F)ccc2[nH]1 [Example 15] | 0.0047 | 0.245 | – | –

Reference: patent US10011585B2, “Factor XIa inhibitors” (Merck Sharp & Dohme Corp., priority 2014, dated 2018)
